Test results as given in patent US20240247042A1, “GLUCAGON LIKE PEPTIDE COMPOUNDS” (Novartis AG, priority 2021, published 2024).

Tests used:
Assay type in all cases: cell-based
human GLP1R (hGLP1R) [1] = target: T1, human GLP1R (hGLP1R) (Homo sapiens, UniProt P43220); assay: Human GLP1R cAMP agonist assay (GloSensor)
Target sequence in this assay (P43220 24-463): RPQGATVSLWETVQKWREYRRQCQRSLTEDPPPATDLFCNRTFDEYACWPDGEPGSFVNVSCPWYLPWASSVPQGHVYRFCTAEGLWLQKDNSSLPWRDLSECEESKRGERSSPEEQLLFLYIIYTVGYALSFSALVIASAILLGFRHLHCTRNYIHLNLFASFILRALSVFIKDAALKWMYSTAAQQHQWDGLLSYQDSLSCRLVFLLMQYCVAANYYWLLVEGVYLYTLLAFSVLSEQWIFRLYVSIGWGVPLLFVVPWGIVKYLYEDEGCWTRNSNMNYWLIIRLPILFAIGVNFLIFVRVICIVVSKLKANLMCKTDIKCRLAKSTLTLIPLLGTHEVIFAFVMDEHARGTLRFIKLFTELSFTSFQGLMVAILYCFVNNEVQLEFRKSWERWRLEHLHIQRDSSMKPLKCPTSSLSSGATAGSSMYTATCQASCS
Procedure: Compounds described herein were tested in the following cellular assays that measures the intracellular cAMP concentration. The cAMP is generated by the activation of GLP1R. EC50 is defined as the concentration of the compound that leads to half of the maximum response (after baseline correction).
The agonist activity of compounds was determined using the GloSensor™ cAMP Assay (Promega Corp.), which measures changes in the intracellular concentration of cAMP after ligand activation of GPCRs. The assay uses a biosensor encoded by pGloSensor™-22F cAMP plasmid (Promega, cat #E2301) with cAMP binding domains fused to a mutant form of Photinus pyralis luciferase. Binding to cAMP causes conformational changes that promote large increases in light output, which can be measured by a luminescence detector. […] The assay was started the following morning by adding an equal volume of CO2-independent media containing 4% v/v dilution of the GloSensor substrate (Promega, cat #E1291) to all wells. The cell plate was incubated at RT for 2 h in the dark. The Biomek i7 (Beckman Coulter) instrument was used for the liquid handling steps. To generate duplicate dose response curves, 3-fold serially diluted compounds were added in to the cell assay plate to a final volume of 60 μL with final concentrations ranging from 100 nM through 0.03 pM in CO2-independent media containing 0.1% BSA, 0.5 mM IBMX and 0.4% DMSO. […] Curve fitting for EC50 determinations was performed in the Helios module of the software package DAVID. The 4-parameter logistic model, Hill slope was used: y=Ainf+(A0−Ainf)/(1+(x/AC50)^Hill Slope), where y is the functional response; x is the compound concentration; A0 is the minimum value (at 0 dose); Ainf is the maximum value (at infinite dose); AC50 corresponds to the point of inflection (i.e., the point on the sigmoid shaped curve halfway between A0 and Ainf). The EC50 value was represented by the AC50 value calculated from Helios in μM. Emax is the maximal activity detected within the concentration range, derived from the fitted curve.
The HEK293-SNAP-hGLP1R stable cell clone that yielded the desired response was used for human GLP1R cAMP agonist assay.

human GLP1R [2] = target: T2, human GLP1R (Homo sapiens, UniProt P43220); assay: Human GLP1R DERET recycling assay; conditions: for Receptor recycled mean: maximum receptor recycled as proportion of amount internalized; for T1/2 mean: rate at which receptor recycled back to the membrane after Exendin 9-39
T2 sequence (P43220 24-463): as above
Procedure: The extent to which agonists internalize or allow recycling of the human GLP1R was determined based on an optimized version of a RealTime FRET-based ‘DERET’ (Dissociation Enhanced Resonance Energy Transfer) assay. The technology relies on labeling of the SNAP-tagged GPCR with a SNAP-Lumi-Terbium (donor fluorophore, Cisbio, cat #SSNPTBD). The compounds are incubated with the cells over-expressing the GPCR of interest in the presence of an excess of fluorescein (acceptor fluorophore). When the GPCR is on the cell surface, the donor signal is quenched by the acceptor and the donor/acceptor ratio is low. As the GPCR internalizes, the donor signal is no longer quenched, and the acceptor is no longer excited so the donor/acceptor ratio increases. The addition of an excess of antagonist blocks further receptor internalization, allowing the receptor to recycle back to the membrane leading to a subsequent reduction in the donor/acceptor ratio. […] To generate triplicate dose response curves, compounds were serially diluted 3-fold in assay buffer, then added to the cell assay plate to a final volume of 40 μL and final top concentrations starting at 3 μM or less (depending on the case). […] EC0 wells with buffer only were also included. The plate FRET fluorescence was measured immediately using a Perkin Elmer Envision with LANCE/DELFIA D400 single mirror, excitation filter X320, and emission filters M615_203 (donor emission) and M515 (acceptor emission), and then measured every 30 min. […] Plates were kept at 37° C. between reads. Data was expressed as the ratio of donor/acceptor emissions using Microsoft Excel and plotted in GraphPad Prism.
Using this model, we determined a T1/2 rate at which the receptor recycled back to the membrane. We also determined a maximum percentage of receptor recycled as a proportion of the amount internalized initially.
The lower the internalization rate and the faster the receptor recycling rate the more the receptor is retained at the membrane.

human GLP1R (hGLP1R) [3] = target: T1, human GLP1R (hGLP1R); assay: Human GLP1R β-arrestin recruitment assay (PathHunter); set-up: GeneArt (insert) 93-0164 (CHO-K1-EA parental cells); 93-0491 (pCMV PK vector bundle); host or cells: PathHunter CHO-K1-EA parental cells, single clone 1; conditions: for EC50: CHO-hGLP1R-β-arrestin cells
Target sequence in this assay (P43220 24-463): as above
Target sequence in this assay (P32121 whole entry partner): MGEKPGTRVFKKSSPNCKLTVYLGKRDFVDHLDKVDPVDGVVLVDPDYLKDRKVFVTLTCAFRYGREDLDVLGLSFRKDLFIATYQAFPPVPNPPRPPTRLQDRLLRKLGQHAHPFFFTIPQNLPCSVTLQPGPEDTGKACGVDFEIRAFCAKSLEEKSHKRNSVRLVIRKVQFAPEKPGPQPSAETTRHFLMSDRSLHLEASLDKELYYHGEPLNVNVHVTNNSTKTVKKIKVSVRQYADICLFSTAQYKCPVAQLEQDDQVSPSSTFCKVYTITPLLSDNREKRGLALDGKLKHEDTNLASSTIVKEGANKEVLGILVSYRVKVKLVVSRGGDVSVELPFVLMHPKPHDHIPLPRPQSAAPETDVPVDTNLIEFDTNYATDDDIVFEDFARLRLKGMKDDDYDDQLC
Procedure: The extent to which agonists recruited β-arrestin was measured using the PathHunter® β-arrestin assay (DiscoverX). This assay measures binding of β-arrestin to the receptor using an enzyme complementation approach. […] When β-arrestin is recruited to the receptor the enzyme becomes active and generates luminescence in the presence of a chemiluminescent substrate (PathHunter® Detection Kit, DiscoverX cat #93-0001). Luminescence can be measured on a relevant detector. […] The following day, agonists were prepared at 5 times the final required concentration. To generate triplicate dose response curves, compounds were serially diluted 3-fold in assay buffer (HBSS, 10 mM Hepes and 0.1% BSA), then added to the cell assay plate to a final volume of 25 μL and final top concentrations starting at 3 μM or less, depending on the compound. […] The plate was incubated at 37° C., 5% CO2 with humidity for 2 h after adding the compounds to the cells. […] The plate was incubated for an additional hour in the dark at RT. […] Curve fitting for EC50 determinations was performed using GraphPad Prism. The 4-parameter logistic model, Hill slope was used: Y=Bottom+(Top−Bottom)/(1+10^((Log EC50−X)*Hill Slope)), where Y is the functional response; X is the compound concentration; bottom is A0 or the minimum value (at 0 dose); top is Ainf or the maximum value (at infinite dose); EC50 is the point of inflection (i.e., the point on the sigmoid shaped curve halfway between A0 and Ainf). The EC50 value was calculated in μM.

human GLP1R [4] = target: T2, human GLP1R; assay: Human GLP1R DERET internalization assay

SMILES | Emax (human GLP1R (hGLP1R) [1]) [%] | Receptor recycled mean (human GLP1R [2]) [%] | T1/2 mean (human GLP1R [2]) [h] | Emax (human GLP1R (hGLP1R) [3]) [%] | Emax (human GLP1R [4]) [%] | EC50 (human GLP1R (hGLP1R) [3]) [nM] | EC50 (human GLP1R [4]; receptor internalization, HEK293-SNAP-hGLP1R-GloSensor cells) [nM]
CCCCCCCCCCCC(CCCCCCCCCCC(=O)O)(C(=O)O)C(=O)NCCOCCOCCOCCOCCOCCOCCOCCOCCOCCOCCOCCOCCOCCOCCOCCOCCOCCOCCOCCOCCOCCOCCOCCOCCC(=O)NCCCC[C@H](NC(=O)[C@H](C)NC(=O)[C@H](C)NC(=O)[C@H](CCC(N)=O)NC(=O)CNC(=O)[C@H](CCC(=O)O)NC(=O)[C@H](CC(C)C)NC(=O)[C@H](Cc1ccc(O)cc1)NC(=O)[C@H](CO)NC(=O)[C@H](CO)NC(=O)[C@@H](NC(=O)[C@H](CC(=O)O)NC(=O)[C@H](CO)NC(=O)[C@@H](NC(=O)[C@H](Cc1ccccc1)NC(=O)[C@@H](NC(=O)CNC(=O)[C@H](CCC(=O)O)NC(=O)C(C)(C)NC(=O)[C@@H](N)Cc1c[nH]cn1)[C@@H](C)O)[C@@H](C)O)C(C)C)C(=O)N[C@@H](CCC(=O)O)C(=O)N[C@@H](Cc1ccccc1)C(=O)N[C@H](C(=O)N[C@@H](C)C(=O)N[C@@H](Cc1c[nH]c2ccccc12)C(=O)N[C@@H](CC(C)C)C(=O)N[C@H](C(=O)N[C@@H](CCCNC(=N)N)C(=O)NCC(=O)N[C@@H](CCCNC(=N)N)C(=O)NCC(=O)O)C(C)C)[C@@H](C)CC (stereo partly drawn) [Compound 1] | 105 | 65 | – | – | – | – | –
CCCCCCCCCCC[C@@](CCCCCCCCCCC(=O)O)(C(=O)O)C(=O)NCCOCCOCCOCCOCCOCCOCCOCCOCCOCCOCCOCCOCCOCCOCCOCCOCCOCCOCCOCCOCCOCCOCCOCCOCCC(=O)NCCCC[C@H](NC(=O)[C@H](C)NC(=O)[C@H](C)NC(=O)[C@H](CCC(N)=O)NC(=O)CNC(=O)[C@H](CCC(=O)O)NC(=O)[C@H](CC(C)C)NC(=O)[C@H](Cc1ccc(O)cc1)NC(=O)[C@H](CO)NC(=O)[C@H](CO)NC(=O)[C@@H](NC(=O)[C@H](CC(=O)O)NC(=O)[C@H](CO)NC(=O)[C@@H](NC(=O)[C@H](Cc1ccccc1)NC(=O)[C@@H](NC(=O)CNC(=O)[C@H](CCC(=O)O)NC(=O)C(C)(C)NC(=O)[C@@H](N)Cc1c[nH]cn1)[C@@H](C)O)[C@@H](C)O)C(C)C)C(=O)N[C@@H](CCC(=O)O)C(=O)N[C@@H](Cc1ccccc1)C(=O)N[C@H](C(=O)N[C@@H](C)C(=O)N[C@@H](Cc1c[nH]c2ccccc12)C(=O)N[C@@H](CC(C)C)C(=O)N[C@H](C(=O)N[C@@H](CCCNC(=N)N)C(=O)NCC(=O)N[C@@H](CCCNC(=N)N)C(=O)NCC(=O)O)C(C)C)[C@@H](C)CC [Compound 2] | 115 | 68 | 1.19 | – | – | – | –
CCCCCCCCCCC[C@](CCCCCCCCCCC(=O)O)(C(=O)O)C(=O)NCCOCCOCCOCCOCCOCCOCCOCCOCCOCCOCCOCCOCCOCCOCCOCCOCCOCCOCCOCCOCCOCCOCCOCCOCCC(=O)NCCCC[C@H](NC(=O)[C@H](C)NC(=O)[C@H](C)NC(=O)[C@H](CCC(N)=O)NC(=O)CNC(=O)[C@H](CCC(=O)O)NC(=O)[C@H](CC(C)C)NC(=O)[C@H](Cc1ccc(O)cc1)NC(=O)[C@H](CO)NC(=O)[C@H](CO)NC(=O)[C@@H](NC(=O)[C@H](CC(=O)O)NC(=O)[C@H](CO)NC(=O)[C@@H](NC(=O)[C@H](Cc1ccccc1)NC(=O)[C@@H](NC(=O)CNC(=O)[C@H](CCC(=O)O)NC(=O)C(C)(C)NC(=O)[C@@H](N)Cc1c[nH]cn1)[C@@H](C)O)[C@@H](C)O)C(C)C)C(=O)N[C@@H](CCC(=O)O)C(=O)N[C@@H](Cc1ccccc1)C(=O)N[C@H](C(=O)N[C@@H](C)C(=O)N[C@@H](Cc1c[nH]c2ccccc12)C(=O)N[C@@H](CC(C)C)C(=O)N[C@H](C(=O)N[C@@H](CCCNC(=N)N)C(=O)NCC(=O)N[C@@H](CCCNC(=N)N)C(=O)NCC(=O)O)C(C)C)[C@@H](C)CC [Compound 3] | – | 69 | 1.24 | – | – | – | –
CCCCCCCCCCCC(CCCCCCCCCCC(=O)O)(C(=O)O)C(=O)NCCOCCOCCOCCOCCOCCOCCOCCOCCC(=O)NCCCC[C@H](NC(=O)[C@H](C)NC(=O)[C@H](C)NC(=O)[C@H](CCC(N)=O)NC(=O)CNC(=O)[C@H](CCC(=O)O)NC(=O)[C@H](CC(C)C)NC(=O)[C@H](Cc1ccc(O)cc1)NC(=O)[C@H](CO)NC(=O)[C@H](CO)NC(=O)[C@@H](NC(=O)[C@H](CC(=O)O)NC(=O)[C@H](CO)NC(=O)[C@@H](NC(=O)[C@H](Cc1ccccc1)NC(=O)[C@@H](NC(=O)CNC(=O)[C@H](CCC(=O)O)NC(=O)C(C)(C)NC(=O)[C@@H](N)Cc1c[nH]cn1)[C@@H](C)O)[C@@H](C)O)C(C)C)C(=O)N[C@@H](CCC(=O)O)C(=O)N[C@@H](Cc1ccccc1)C(=O)N[C@H](C(=O)N[C@@H](C)C(=O)N[C@@H](Cc1c[nH]c2ccccc12)C(=O)N[C@@H](CC(C)C)C(=O)N[C@H](C(=O)N[C@@H](CCCNC(=N)N)C(=O)NCC(=O)N[C@@H](CCCNC(=N)N)C(=O)NCC(=O)O)C(C)C)[C@@H](C)CC (stereo partly drawn) [Compound 4] | 119 | 65 | – | 84 | 100 | – | –
CC[C@H](C)[C@H](NC(=O)[C@H](Cc1ccccc1)NC(=O)[C@H](CCC(=O)O)NC(=O)[C@H](CCCCNC(=O)CCOCCOCCOCCOCCOCCOCCOCCOCCOCCOCCOCCOCCOCCOCCOCCOCCOCCOCCOCCOCCOCCOCCOCCOCCNC(=O)C(CCCCCCCCCCC(=O)O)(CCCCCCCCCCC(=O)O)C(=O)O)NC(=O)[C@H](C)NC(=O)[C@H](C)NC(=O)[C@H](CCC(N)=O)NC(=O)CNC(=O)[C@H](CCC(=O)O)NC(=O)[C@H](CC(C)C)NC(=O)[C@H](Cc1ccc(O)cc1)NC(=O)[C@H](CO)NC(=O)[C@H](CO)NC(=O)[C@@H](NC(=O)[C@H](CC(=O)O)NC(=O)[C@H](CO)NC(=O)[C@@H](NC(=O)[C@H](Cc1ccccc1)NC(=O)[C@@H](NC(=O)CNC(=O)[C@H](CCC(=O)O)NC(=O)C(C)(C)NC(=O)[C@@H](N)Cc1c[nH]cn1)[C@@H](C)O)[C@@H](C)O)C(C)C)C(=O)N[C@@H](C)C(=O)N[C@@H](Cc1c[nH]c2ccccc12)C(=O)N[C@@H](CC(C)C)C(=O)N[C@H](C(=O)N[C@@H](CCCNC(=N)N)C(=O)NCC(=O)N[C@@H](CCCNC(=N)N)C(=O)NCC(=O)O)C(C)C [Compound 6] | 111 | 70 | 1.15 | 75 | 92 | 70 | –
CC[C@H](C)[C@H](NC(=O)[C@H](Cc1ccccc1)NC(=O)[C@H](CCC(=O)O)NC(=O)[C@H](CCCCNC(=O)CCOCCOCCOCCOCCOCCOCCOCCOCCOCCOCCOCCOCCOCCOCCOCCOCCOCCOCCOCCOCCOCCOCCOCCOCCNC(=O)C(CCCCCCCCCCCC(=O)O)(CCCCCCCCCCCC(=O)O)C(=O)O)NC(=O)[C@H](C)NC(=O)[C@H](C)NC(=O)[C@H](CCC(N)=O)NC(=O)CNC(=O)[C@H](CCC(=O)O)NC(=O)[C@H](CC(C)C)NC(=O)[C@H](Cc1ccc(O)cc1)NC(=O)[C@H](CO)NC(=O)[C@H](CO)NC(=O)[C@@H](NC(=O)[C@H](CC(=O)O)NC(=O)[C@H](CO)NC(=O)[C@@H](NC(=O)[C@H](Cc1ccccc1)NC(=O)[C@@H](NC(=O)CNC(=O)[C@H](CCC(=O)O)NC(=O)C(C)(C)NC(=O)[C@@H](N)Cc1c[nH]cn1)[C@@H](C)O)[C@@H](C)O)C(C)C)C(=O)N[C@@H](C)C(=O)N[C@@H](Cc1c[nH]c2ccccc12)C(=O)N[C@@H](CC(C)C)C(=O)N[C@H](C(=O)N[C@@H](CCCNC(=N)N)C(=O)NCC(=O)N[C@@H](CCCNC(=N)N)C(=O)NCC(=O)O)C(C)C [Compound 7] | – | 71 | 1.27 | 82 | 77 | – | –
CC[C@H](C)[C@H](NC(=O)[C@H](Cc1ccccc1)NC(=O)[C@H](CCC(=O)O)NC(=O)[C@H](CCCCNC(=O)CCOCCOCCOCCOCCOCCOCCOCCOCCOCCOCCOCCOCCOCCOCCOCCOCCOCCOCCOCCOCCOCCOCCOCCOCCNC(=O)C(CCCCCCCCCCCCCC(=O)O)(CCCCCCCCCCCCCC(=O)O)C(=O)O)NC(=O)[C@H](C)NC(=O)[C@H](C)NC(=O)[C@H](CCC(N)=O)NC(=O)CNC(=O)[C@H](CCC(=O)O)NC(=O)[C@H](CC(C)C)NC(=O)[C@H](Cc1ccc(O)cc1)NC(=O)[C@H](CO)NC(=O)[C@H](CO)NC(=O)[C@@H](NC(=O)[C@H](CC(=O)O)NC(=O)[C@H](CO)NC(=O)[C@@H](NC(=O)[C@H](Cc1ccccc1)NC(=O)[C@@H](NC(=O)CNC(=O)[C@H](CCC(=O)O)NC(=O)C(C)(C)NC(=O)[C@@H](N)Cc1c[nH]cn1)[C@@H](C)O)[C@@H](C)O)C(C)C)C(=O)N[C@@H](C)C(=O)N[C@@H](Cc1c[nH]c2ccccc12)C(=O)N[C@@H](CC(C)C)C(=O)N[C@H](C(=O)N[C@@H](CCCNC(=N)N)C(=O)NCC(=O)N[C@@H](CCCNC(=N)N)C(=O)NCC(=O)O)C(C)C [Compound 8] | 106 | – | – | – | – | – | –
CC[C@H](C)[C@H](NC(=O)[C@H](Cc1ccccc1)NC(=O)[C@H](CCC(=O)O)NC(=O)[C@H](CCCCNC(=O)CCOCCOCCOCCOCCOCCOCCOCCOCCOCCOCCOCCOCCOCCOCCOCCOCCOCCOCCOCCOCCOCCOCCOCCOCCNC(=O)C(CCCCCCCCCCCCCCC(=O)O)(CCCCCCCCCCCCCCC(=O)O)C(=O)O)NC(=O)[C@H](C)NC(=O)[C@H](C)NC(=O)[C@H](CCC(N)=O)NC(=O)CNC(=O)[C@H](CCC(=O)O)NC(=O)[C@H](CC(C)C)NC(=O)[C@H](Cc1ccc(O)cc1)NC(=O)[C@H](CO)NC(=O)[C@H](CO)NC(=O)[C@@H](NC(=O)[C@H](CC(=O)O)NC(=O)[C@H](CO)NC(=O)[C@@H](NC(=O)[C@H](Cc1ccccc1)NC(=O)[C@@H](NC(=O)CNC(=O)[C@H](CCC(=O)O)NC(=O)C(C)(C)NC(=O)[C@@H](N)Cc1c[nH]cn1)[C@@H](C)O)[C@@H](C)O)C(C)C)C(=O)N[C@@H](C)C(=O)N[C@@H](Cc1c[nH]c2ccccc12)C(=O)N[C@@H](CC(C)C)C(=O)N[C@H](C(=O)N[C@@H](CCCNC(=N)N)C(=O)NCC(=O)N[C@@H](CCCNC(=N)N)C(=O)NCC(=O)O)C(C)C [Compound 9] | 107 | – | – | 37 | 22 | > 2000 | > 1000
